# What was measured:
# HIV-1 RT wild-type (WT) = target: T1, HIV-1 RT wild-type (WT) (Human immunodeficiency virus type 1 group M subtype B, UniProt P03366); experiment: Reverse transcriptase (RT) assay, wild-type enzyme; type: biochemical
# T1 construct: an HIV RT clone pKRT2 containing only the RT p66 gene regulated by the lac operon/trc promoter; made in house; host or cells: E. coli JM109, vector pKK233-2
# Excerpt: (§1) Among the enzymes for which Human Immunodeficiency Virus (HIV-1) encodes is a reverse transcriptase (1), so-named because it transcribes a DNA copy from an RNA template. This activity can be quantitatively measured in a cell-free enzyme assay and is based upon the observation that reverse transcriptase is able to use a synthetic template poly r(C) primed with a biotinylated oligo d(G) to transcribe a radio-labelled DNA strand utilising 3H-dGTP as a substrate. The assay described below utilises the wild-type enzyme (which is the predominant form of the enzyme observed in patients infected with HIV-1) and can also be used with mutant RT enzymes (for example, Y181C, prepared by site-directed mutagenesis in which the tyrosine residue at codon 181 has been replaced by a cysteine residue) in analogous assay conditions. This assay allows compounds to be evaluated for their effectiveness at inhibiting the mutant enzymes.
# (§2) Some HIV-1 IIIB clone BH10 RT mutants were provided by Dr. C.-K. Shih (Boehringer Ingelheim Pharmaceutials Inc., U.S.A.) in the vector pKK233-2 (Pharmacia). Briefly an HIV RT clone pKRT2 containing only the RT p66 gene regulated by the lac operon/trc promoter was obtained from Dr. W. Summers (Yale University) (2). A variety of specific amino acid substitutions were introduced into the wild-type RT gene by site-directed mutagenesis. RT clones were subcloned into the pKK233-2 bacterial expression vector. Clones provided included wild-type, Val106Ala, Tyr181Cys, Tyr188Cys, Tyr188Leu, Gly190Ala and Pro236Leu. Others were made in-house by site-directed mutagenesis of the pKK233-2 RT clones including Lys103Asn, Lys103Asn/Tyr181Cys, Lys103Asn/Leu100Ile, Lys103Asn/Pro225His, and Lys103Asn/Val108Ile.
# (§3) Purification of recombinant reverse transcriptase was performed using a combination of methods previously described (3). A single colony from a fresh plate of transformed JM109 cells was used to initiate growth of a pre-culture grown o/n at 37° C. Two liters of growth medium were inoculated with this pre-culture. At OD600˜1.5 (5-6 h at 37° C.), RT gene expression was induced with IPTG (1 mM final), and the fermentation was continued for a few more hours at 37° C. After centrifugation, supernatants were discarded while cell pellets were pooled and stored at −80° C. until purification. Cells were thawed at 4° C. overnight and suspended in lysis buffer (MES 50 mM pH 6, EDTA 1 mM, 10% v/v glyerol, 0.02% w/v OBG, 0.02% w/v sodium azide). Lysozyme was added and the mixture was incubated on ice for 40 minutes. After homogenization using a bounce in presence of lysozyme and sonication, the cells were centrifuged for 30 minutes. Supernatant (S1) was saved and stored at 4° C. The centrifuged pellet was resuspended in extraction buffer (MES 50 mM pH 6, KPO4 50 mM pH 6, KCl 100 mM, 10% v/v glycerol, 0.02% w/v OBG, 0.02% w/v sodium axide) and stirred for 30 minutes at 4° C. This second mixture was centrifuged again and the supernatant (S2) was saved. The above procedure was repeated 2 more times saving supernatants S3 and S4 and one last extraction was performed overnight (S5). Polymin P (0.005% final) was added to the combined supernatants to remove nucleic acids. This solution was stirred for 75 minutes at 4° C. and centrifuged for 1 h. The supernatant (SS1) was precipitated on ice with 20% w/v ammonium sulfate and stirred for 1 h at 4° C. The mixture was then centrifuged and the resulting supernatant (SS2) was precipitated with additional 40% w/v ammonium sulfate (60% total), stirred for 1 h and centrifuged again. The final pellet (P1) was stored overnight at 4° C. before undergoing purification the following day. All steps of the purification were performed at 4° C. unless otherwise stated.
# (§4) Pellet (P1) was resuspended into MES 50 mM pH 6, KPO4 10 mM pH 6, KCl 100 mM, 10% v/v glycerol, 0.02% w/v OBG, 0.02% w/v sodium azide. The suspension was dialysis against the same buffer overnight using 12-14 kD MWCO dialysis tubing. […]
# HIV-1 RT K103N = target: T2, HIV-1 RT K103N (Human immunodeficiency virus type 1 group M subtype B, UniProt P03366, K702N); experiment: Reverse transcriptase (RT) assay, K103N mutant; type: biochemical
# T2 construct: an HIV RT clone pKRT2 containing only the RT p66 gene regulated by the lac operon/trc promoter; made in house; host or cells: E. coli JM109, vector pKK233-2
# Excerpt: as §1, §2, §3, §4
# HIV-1 RT Y181C = target: T3, HIV-1 RT Y181C (Human immunodeficiency virus type 1 group M subtype B, UniProt P03366, Y780C); experiment: Reverse transcriptase (RT) assay, Y181C mutant; type: biochemical
# T3 construct: an HIV RT clone pKRT2 containing only the RT p66 gene regulated by the lac operon/trc promoter; made in house; host or cells: E. coli JM109, vector pKK233-2
# Excerpt: as §1, §2, §3, §4
# HIV-1 RT V106A = target: T4, HIV-1 RT V106A (Human immunodeficiency virus type 1 group M subtype B, UniProt P03366, V705A); experiment: Reverse transcriptase (RT) assay, V106A mutant; type: biochemical
# T4 construct: an HIV RT clone pKRT2 containing only the RT p66 gene regulated by the lac operon/trc promoter; made in house; host or cells: E. coli JM109, vector pKK233-2
# Excerpt: as §1, §2, §3, §4
# HIV-1 RT Y188L = target: T5, HIV-1 RT Y188L (Human immunodeficiency virus type 1 group M subtype B, UniProt P03366, Y787L); experiment: Reverse transcriptase (RT) assay, Y188L mutant; type: biochemical
# T5 construct: an HIV RT clone pKRT2 containing only the RT p66 gene regulated by the lac operon/trc promoter; made in house; host or cells: E. coli JM109, vector pKK233-2
# Excerpt: as §1, §2, §3, §4
# HIV-1 RT K103N/Y181C = target: T6, HIV-1 RT K103N/Y181C (Human immunodeficiency virus type 1 group M subtype B, UniProt P03366, K702N/Y780C); experiment: Reverse transcriptase (RT) assay, K103N/Y181C mutant; type: biochemical
# T6 construct: an HIV RT clone pKRT2 containing only the RT p66 gene regulated by the lac operon/trc promoter; made in house; host or cells: E. coli JM109, vector pKK233-2
# Excerpt: as §1, §2, §3, §4
# HIV-1 RT K103N/P225H = target: T7, HIV-1 RT K103N/P225H (Human immunodeficiency virus type 1 group M subtype B, UniProt P03366, K702N/P824H); experiment: Reverse transcriptase (RT) assay, K103N/P225H mutant; type: biochemical
# T7 construct: an HIV RT clone pKRT2 containing only the RT p66 gene regulated by the lac operon/trc promoter; made in house; host or cells: E. coli JM109, vector pKK233-2
# Excerpt: as §1, §2, §3, §4
# HIV-1 RT K103N/V108I = target: T8, HIV-1 RT K103N/V108I (Human immunodeficiency virus type 1 group M subtype B, UniProt P03366, K702N/V707I); experiment: Reverse transcriptase (RT) assay, K103N/V108I mutant; type: biochemical
# T8 construct: an HIV RT clone pKRT2 containing only the RT p66 gene regulated by the lac operon/trc promoter; made in house; host or cells: E. coli JM109, vector pKK233-2
# Excerpt: as §1, §2, §3, §4
# HIV-1 RT K103N/L100I = target: T9, HIV-1 RT K103N/L100I (Human immunodeficiency virus type 1 group M subtype B, UniProt P03366, K702N/L699I); experiment: Reverse transcriptase (RT) assay, K103N/L100I mutant; type: biochemical
# T9 construct: an HIV RT clone pKRT2 containing only the RT p66 gene regulated by the lac operon/trc promoter; made in house; host or cells: E. coli JM109, vector pKK233-2
# Excerpt: as §1, §2, §3, §4
# [1] = tested on: HIV coding for wild-type reverse transcriptase (WT RT); experiment: ELISA (p24) assay of HIV replication in C8166 cell culture, wild-type RT virus; type: cell-based, HIV-1; conditions: Human immunodeficiency virus 1, C8166, 72 h, read-out: EC50 WT RT
# Protocol: Compounds of the invention were tested for their ability to inhibit HIV replication in cell culture in a 96-well plate assay. Complete RPMI 1640, consisting of RPMI 1640+10% fetal bovine serum, 10 μg/ml gentamycin and 10 μM β-mercaptoethanol was used for dilution of the compound as well as cell growth medium. The T lymphocyte cell line C8166 was infected at a multiplicity of infection of 0.001 with viruses coding for wild-type and mutant reverse transcriptase. Cells were then incubated for three days in the presence of serial dilutions of the compounds of the invention. The supernatant was pooled from eight replica wells and the concentration of extracellular p24 was determined using a commercially available HIV-1 p24 antigen assay kit (Beckman-Coulter®). The level of inhibition (% inhibition) was calculated with the following equation: [formula]
SMILES,IC50 (HIV-1 RT wild-type (WT)),IC50 (HIV-1 RT K103N),IC50 (HIV-1 RT Y181C),IC50 (HIV-1 RT V106A),IC50 (HIV-1 RT Y188L),IC50 (HIV-1 RT K103N/Y181C),IC50 (HIV-1 RT K103N/P225H),IC50 (HIV-1 RT K103N/V108I),IC50 (HIV-1 RT K103N/L100I),EC50 [1]
"CCN1c2ncc(CCOc3ccnc4ccccc34)cc2C(=O)Nc2c(C)cc(Cl)nc21 [compound 1, 2-Chloro-5,11-dihydro-11-ethyl-4-methyl-8-{2-(4-quinolinyloxy)ethyl}-6H-dipyrido[3,2-b:2′,3′-e][1,4]diazepin-6-one]",10.5 nM,19 nM,20 nM,132 nM,2740 nM,52 nM,31.2 nM,29 nM,28.5 nM,2.6 nM
"Cc1ccnc2c1NC(=O)c1cc(CCOc3ccnc4ccccc34)cnc1N2C1CC1 [compound 3, 11-(Cyclopropyl)-5,11-dihydro-4-methyl-8-{2-(4-quinolinyloxy)ethyl}-6H-dipyrido[3,2-b:2′,3′-e][1,4]diazepin-6-one]",16.5 nM,45 nM,73 nM,79 nM,3240 nM,612 nM,56 nM,47 nM,124 nM,1.3 nM
"CCN1c2ncc(CCOc3ccnc4ccccc34)cc2C(=O)N(C)c2ccc(F)nc21 [compound 4, 5,11-Dihydro-11-ethyl-2-fluoro-5-methyl-8-{2-(4-quinolinyloxy)ethyl}-6H-dipyrido[3,2-b:2′,3′-e][1,4]diazepin-6-one]",11 nM,22.5 nM,26 nM,206 nM,520 nM,52 nM,27 nM,32 nM,108 nM,0.98 nM
"Cc1cc(F)nc2c1NC(=O)c1cc(CCOc3ccnc4ccccc34)cnc1N2C1CC1 [compound 5, 11-(Cyclopropyl)-5,11-dihydro-2-fluoro-4-methyl-8-{2-(4-quinolinyloxy)-ethyl}-6H-dipyrido[3,2-b:2′,3′-e][1,4]diazepin-6-one]",19 nM,37.5 nM,76 nM,61 nM,2540 nM,536 nM,38 nM,38 nM,98 nM,0.83 nM
"CN1C(=O)c2cc(CCOc3ccnc4ccccc34)cnc2N(C2CC2)c2nc(Cl)ccc21 [compound 6, 2-Chloro-11-cyclopropyl-5,11-dihydro-5-methyl-8-{2-(4-quinolinyloxy)-ethyl}-6H-dipyrido[3,2-b:2′,3′-e][1,4]diazepin-6-one]",25 nM,–,–,–,–,–,–,–,–,–
"CCN1c2ncc(CCOc3ccnc4ccccc34)cc2C(=O)Nc2c(C)cc(F)nc21 [compound 7, 5,11-Dihydro-11-ethyl-2-fluoro-4-methyl-8-{2-(4-quinolinyloxy)ethyl}-6H-dipyrido[3,2-b:2′,3′-e][1,4]diazepin-6-one]",9.8 nM,26 nM,38 nM,74 nM,4320 nM,199 nM,46 nM,45 nM,98 nM,1.1 nM
"CCN1c2ncc(CCOc3ccnc4ccccc34)cc2C(=O)Nc2c(C)ccnc21 [compound 8, 5,11-Dihydro-11-ethyl-4-methyl-8-{2-(4-quinolinyloxy)ethyl}-6H-dipyrido[3,2-b:2′,3′-e][1,4]diazepin-6-one]",10 nM,37 nM,43 nM,190 nM,7510 nM,301 nM,67 nM,63 nM,135 nM,0.93 nM
"CN1C(=O)c2cc(CCOc3cc[n+]([O-])c4ccccc34)cnc2N(C2CC2)c2nc(Cl)ccc21 [compound 10, 2-Chloro-11-cyclopropyl-5,11-dihydro-5-methyl-8-{2-{(1-oxido-4-quinolinyl)oxy}ethyl}-6H-dipyrido[3,2-b:2′,3′-e][1,4]diazepin-6-one]",41 nM,67 nM,206 nM,1370 nM,1420 nM,710 nM,–,255 nM,229 nM,–
Cc1ccnc2c1NC(=O)c1cc(CCOc3cc[n+]([O-])c4ccccc34)cnc1N2C1CC1 [compound 15],61 nM,66 nM,226 nM,206 nM,> 10000 nM,1520 nM,93 nM,215 nM,270 nM,–
"CCN1c2nc(Cl)ccc2NC(=O)c2cc(CCOc3cc[n+]([O-])c4ccccc34)cnc21 [compound 22, 2-Chloro-5,11-dihydro-11-ethyl-8-{2-{(1-oxido-4-quinolinyl)-oxy}ethyl}-6H-dipyrido[3,2-b:2′,3′-e][1,4]diazepin-6-one]",45 nM,–,–,2490 nM,2990 nM,336 nM,–,–,–,–
"CCN1c2ncc(CCOc3cccc4c3ccc[n+]4[O-])cc2C(=O)Nc2c(C)cc(F)nc21 [compound 23, 5,11-Dihydro-11-ethyl-2-fluoro-4-methyl-8-{2-{(1-oxido-5-quinolinyl)-oxy}ethyl}-6H-dipyrido[3,2-b:2′,3′-e][1,4]diazepin-6-one]",6.1 nM,–,–,105 nM,5610 nM,247 nM,–,–,–,–
"CCN1C(=O)c2cc(CCOc3cc[n+]([O-])c4ccccc34)cnc2N(CC)c2ncccc21 [compound 27, 5,11-Dihydro-5,11-diethyl-8-{2-{(1-oxido-4-quinolinyl)oxy}ethyl}-6H-dipyrido[3,2-b:2′,3′-e][1,4]diazepin-6-one]",38 nM,–,–,2270 nM,5340 nM,299 nM,–,–,–,–
